{"source": "patent US11110070B2", "about": "(priority 2015, dated 2021)", "key": {"[1]": {"assay": "Body weight in CORT model", "assay_type": "in vivo, mice", "settings": "ketamine 90 mg kg^−1 single injection or fluoxetine 18 mg kg^−1 for 3 weeks, before CORT"}, "129S6/SvEvTac mice [2]": {"system": "129S6/SvEvTac mice", "assay": "Social interaction with a novel mouse after SD", "assay_type": "in vivo", "settings": "ketamine 30 mg kg^−1 before SD", "method": "(§1) Mice were placed into a large open field containing 2 upside-down wire mesh pencil cups. One pencil cup served as a novel object or empty container. The other pencil cup contained a novel 129S6/SvEv male mouse. Mice were placed in the middle of the open field arena and allowed to explore for 10 min. Sessions were videotaped and the first 5 min were later analyzed using behavioral tracking software (TopScan, CleverSys, Reston, Va.)."}, "129S6/SvEvTac mice [3]": {"system": "129S6/SvEvTac mice", "assay": "Novelty suppressed feeding (NSF) in SD experiments", "assay_type": "in vivo", "method": "Testing was performed as previously described (A13). Briefly, the testing apparatus consisted of a plastic box (50×50×20 cm). The floor was covered with approximately 2 cm of wooden bedding and the arena was brightly lit (1100-1200 lux). For 129S6/SvEv experiments, mice were food restricted for 12 h. For the C57BL/6N experiments, mice were food restricted for 24 h. All food was removed from the home cage. At the time of testing, a single pellet of food (regular chow) was placed on a white paper platform positioned in the center of the box. Each animal was placed in a corner of the box, and a stopwatch was immediately started. The latency of the mice to begin eating was recorded. Immediately after the latency was recorded, the food pellet was removed from the arena. The mice were then placed into a cage and the amount of food consumed in 5 min was measured (home cage consumption), followed by an assessment of post-restriction weight. We used the Kaplan-Meier survival analysis due to the lack of normal distribution of data. The Mantel-Cox log-rank test was used to evaluate differences between the experimental groups."}, "[4]": {"system": "hypothalamic-pituitary-adrenal (HPA) axis", "assay": "Corticosterone enzyme immunoassay after a brief stressor (SD model)", "assay_type": "in vivo", "settings": "SD mice; ketamine 10, 30 or 90 mg kg^−1 before SD; vs Ctrl-Sal", "method": "Mice were exposed to a minor stressor for 10 min and then returned to their home cages. Blood was collected from awake mice 70 min after the start of the stressor from the retro-orbital sinus using hematocrit tubes. Blood was then transferred to Eppendorf tubes pre-coated with 5 μl 0.5 M EDTA, placed on ice, and immediately spun down to obtain plasma for subsequent EIA. Plasma was stored at −80° C. until analysis. EIA was performed using a DetectX Corticosterone EIA Kit (#K014-H1, Arbor Assays)."}, "C57BL/6NTac mice": {"system": "C57BL/6NTac mice", "assay": "Sucrose splash test (ST) in CORT model", "assay_type": "in vivo", "settings": "ketamine 90 mg kg^−1 or fluoxetine, before CORT", "method": "Experiment 5 (Pre-ketamine and pre-fluoxetine corticosterone (CORT)): C57BL16NTac mice were injected with ketamine (10, 30, 90 mg kg^−1, i.p.) 1 week before the start of CORT, or administered fluoxetine (18 mg kg^−1 per day) in the drinking water for 3 weeks before the start of CORT. Ketamine was purchased from Merial (100 mg/ml stock solution). Fluoxetine hydrochloride (160 μg/mL, equivalent to 18 mg kg^−1 per day in the drinking water) was purchased from Anawa Trading (Zurich, Switzerland) and dissolved in 0.45% hydroxypropyl-β-cyclodextrin (β-CD) (Sigma-Aldrich, Saint-Quentin Fallavier, France) solution. Following ketamine or fluoxetine treatment, CORT was administered for 3 weeks in the drinking water. CORT (4-pregnen-11b-DIOL-3 20-DIONE 21-hemisuccinate) (35 μg/ml) from. Sigma Aldrich (Saint-Quentin Fallavier, France) was dissolved in vehicle (0.45% β-CD). Control animals received vehicle (0.45% β-CD) throughout the duration of the experiment.\nThis test consisted of squirting 200 μl of a 10% sucrose solution on the mouse's snout. The grooming duration was quantified using Stopwatch+ (Center for Behavioral Neuroscience, Georgia State University)."}, "chronic PTSD": {"system": "chronic PTSD", "settings": "intravenous infusion; compared with midazolam; cited from earlier work"}, "129S6/SvEvTac mice [5]": {"system": "129S6/SvEvTac mice", "assay": "Fighting behavior during SD bouts", "assay_type": "in vivo", "settings": "for latency of the CD-1 to attack the 129S6/SvEv mouse: vs SD-Sal", "method": "(§2) Adult aggressor CD-1 male mice were single-housed in Macrolon® polycarbonate resin cages (15.25 in×7.8 in×9.5 in) (Animal Care Systems, Inc., Centennial, Colo.). Male 129S6/SvEvTac mice (9 weeks of age) were subsequently placed into the resident. CD-1 mouse's cage. Three antagonistic encounters were allowed between the CD-1 mouse and the intruder. Each of these encounters typically lasted less than 5 min. Following the encounters, mice were separated by a polished stainless steel cage divider (Animal Care Systems, Inc., Centennial, Colo., P/N C79171), which allowed for olfactory and auditory communication, but limited visual or tactile contact. The partition was removed daily for 2 weeks and 3 antagonistic encounters were allowed between the mice each day. This procedure consistently yielded a submissive phenotype in the experimental intruder mice. Control (Ctrl) mice were group housed 4 to 5 per cage in Macrolon® polycarbonate resin cages without dividers."}, "129S6/SvEv mice": {"system": "129S6/SvEv mice", "assay": "FST after prophylactic ketamine or ketamine metabolites (FIG. 15)", "assay_type": "in vivo", "settings": "prophylactic K-injected vs Sal-injected mice"}, "129S6/SvEvTac mice [6]": {"system": "129S6/SvEvTac mice", "assay": "1-shock contextual fear conditioning (CFC) in SD experiments", "assay_type": "in vivo", "settings": "ketamine after SD", "method": "The 1-shock CFC procedure was performed as previously published (A15). Briefly, mice were placed into context A and administered a 2-s shock (0.75 mA) 180 s later. Mice were removed from the context 15 s following the termination of shock (at 197 s). For context retrieval, mice were placed back into context A for 180 s. For alternate contexts, mice were placed into the contexts for 180 s."}, "129S6/SvEvTac mice [7]": {"system": "129S6/SvEvTac mice", "assay": "FST after reinstatement", "assay_type": "in vivo", "method": "The FST was administered as previously described (Richardson-Jones et al., 2010; Brachman et al., 2016)."}, "129S6/SvEvTac mice [8]": {"system": "129S6/SvEvTac mice", "assay": "Dominant interaction test after SD", "assay_type": "in vivo", "method": "as §2\nas §1, with “Dominant interaction was performed as previously described (A12). Briefly, mice were placed” for “Mice were placed”, “cup contained the CD-1 aggressor mouse. Mice” for “cup contained a novel 129S6/SvEv male mouse. Mice”"}, "[9]": {"settings": "SD mice, ketamine 30 mg kg^−1 before SD, vs SD-Sal"}}, "note": "Entries after “also recorded” stand apart in the source; their conditions may differ."}
{"compound": "CNC1(c2ccccc2Cl)CCCCC1=O", "note": "(racemic) [ketamine, (RS)-2-(2-chlorophenyl)-2-(methylamino)cyclohexanone]", "values": [{"measurement": "CORT-induced increase in body weight", "setting": "[1]", "result": "prevented the CORT-induced increase in body weight"}, {"measurement": "social interaction with a novel mouse", "setting": "129S6/SvEvTac mice [2]", "result": "did not find an effect"}, {"measurement": "latency to eat in NSF", "setting": "129S6/SvEvTac mice [3]; Ctrl mice, ketamine in post-SD design, vs saline", "result": "decreased the latency to eat; also recorded: significantly decreased the latency to approach the food pellet"}, {"measurement": "latency to eat in NSF", "setting": "129S6/SvEvTac mice [3]; SD mice, ketamine after SD, vs SD-Sal", "result": "abolished; also recorded: did not differ from one another"}, {"measurement": "latency to feed in NSF", "setting": "129S6/SvEvTac mice [3]; ketamine 30 mg kg^−1 before SD", "result": "no significant effect"}, {"measurement": "levels of CORT following a brief stressor", "setting": "[4]", "result": "did not differ from Ctrl-Sal mice"}, {"measurement": "latency to groom in the ST (chronic CORT-induced depressive-like phenotype)", "setting": "C57BL/6NTac mice", "result": "prevented the chronic CORT-induced depressive-like phenotype; also recorded: decreased the latency to groom"}, {"measurement": "PTSD symptom severity", "setting": "chronic PTSD", "result": "significant and rapid reduction in PTSD symptom severity"}, {"measurement": "average immobility during week 2 of SD bouts", "setting": "129S6/SvEvTac mice [5]; SD-K vs SD-Sal", "result": "significantly decreased; also recorded: significantly altered"}, {"measurement": "average immobility time during week 1 of SD bouts", "setting": "129S6/SvEvTac mice [5]; all groups", "result": "not significantly different"}, {"measurement": "latency of the CD-1 to attack the 129S6/SvEv mouse", "setting": "129S6/SvEvTac mice [5]; ketamine 30 mg kg^−1, at the start of SD", "result": "significantly later; also recorded: only differed"}, {"measurement": "latency of the CD-1 to attack the 129S6/SvEv mouse", "setting": "129S6/SvEvTac mice [5]; ketamine 10 or 90 mg kg^−1", "result": "comparably attacked"}, {"measurement": "immobility in day 2 of the FST", "setting": "129S6/SvEv mice", "result": "significantly less immobility"}, {"measurement": "CFC learning (freezing)", "setting": "129S6/SvEvTac mice [6]", "result": "did not impact CFC learning; also recorded: comparable levels of freezing"}, {"measurement": "time immobile in the FST", "setting": "129S6/SvEvTac mice [7]; ketamine 1 week prior to 1-shock reinstatement", "result": "equal levels of immobility"}, {"measurement": "time immobile in the FST", "setting": "129S6/SvEvTac mice [7]; ketamine 1 week prior to 3-shock reinstatement", "result": "equal levels of immobility in the FST"}, {"measurement": "time investigating the empty enclosure quadrant", "setting": "129S6/SvEvTac mice [8]; Ctrl mice, ketamine 30 mg kg^−1 vs saline", "result": "equivalent amount of time investigating the empty enclosure quadrant"}, {"measurement": "interaction with the CD-1 aggressor mouse", "setting": "129S6/SvEvTac mice [8]; [9]", "result": "significantly increased willingness to interact with the CD-1; also recorded: considerably more time investigating a CD-1 mouse"}, {"measurement": "time investigating the empty enclosure quadrant", "setting": "129S6/SvEvTac mice [8]; [9]", "result": "significantly less time investigating the empty enclosure quadrant"}]}
